Experimental findings from patent publication US6750268B2, “Bonding composition” (Kuraray Co., Ltd., priority 1999, dated 2004) are described below.

The nature of data set [1]: Measurement of pH of acid. Conditions: one part by weight of acid in 99 parts by weight of distilled water. The format is physicochemical. Here is the method:
One part by weight of the acid to be measured is mixed with 99 parts by weight of distilled water, and the pH of the resulting mixture is measured with a pH meter (Iuchi's pH meter).

The nature of data set [2]: Solubility of a calcium salt of an acid in water. As to conditions: for Calcium Salt of Acid: Solubility in water: room temperature, macroscopic check clear or cloudy.
Description: Next, powdery calcium carbonate (0.1 mmols) is fed into the test tube, and stirred at room temperature for 10 minutes so that it is reacted with the acid. The resulting solution is macroscopically checked as to whether it is clear or cloudy. The solubility of the calcium salt in the clear solution is above 0.1 M/L, and the acid is marked “x”.
To the cloudy solution in the test tube, 9 ml of distilled water is further added, and stirred at room temperature for 30 minutes. This is again checked macroscopically. […] When it is still cloudy in this condition, the solubility of the calcium salt is below 0.01 M/L, and the acid is marked “O”. In case where the solubility of the calcium salt of the acid tested is numerically represented, test tubes having a proper capacity are prepared, and the process as above is repeated in them. Salt solutions having different concentrations are prepared, and they are macroscopically checked to quantitatively determine the solubility of the salt.
Data set [3] is described as follows: Solubility of calcium salt of acid in film-forming agent.
Description: Next, powdery calcium carbonate (0.1 mmols) is fed into the test tube, and stirred at room temperature for 10 minutes so that it is reacted with the acid to give a calcium salt of the acid. Next, the resulting solution is dried in a drier at 60° C. for 16 hours to remove water, and the 1 ml of a film-forming agent is added to the resulting residue. This is stirred at room temperature for 30 minutes, and the resulting solution is macroscopically checked as to whether it is clear or cloudy. The solubility of the calcium salt in the clear solution is above 0.1 M/L, and the acid is marked “x”.
To the cloudy solution in the test tube, 9 ml of the film-forming agent is further added, and stirred at room temperature for 30 minutes. This is again checked macroscopically. […] When it is still cloudy in this condition, the solubility of the calcium salt is below 0.01 M/L, and the acid is marked “O”. For easily-available calcium salts of acids, such as calcium chloride. calcium nitrate and others, they are not produced in the manner as above, but commercial products are used to measure their solubility.
Data set [4] in a line: Miscibility of film-forming agent with physiological saline solution (uniformity of solution). The data set is classed as physicochemical. Conditions: film-forming agent mixed with same weight of physiological saline solution 9 g/L, room temperature, shaken 20 seconds, macroscopically checked. Here is the method:
The film-forming agent must be soluble in water. Preferably, at least 5% by weight of the agent are soluble in water. More preferably, it is soluble in water in any ratio. In addition, the water-soluble film-forming agent must be miscible with a physiological saline solution. Whether the film-forming agent is miscible with a physiological saline solution or not can be determined from its phase diagram. […] The uniformity of the resulting solution is determined. Accordingly, the miscibility of the film-forming agent with a physiological saline solution can be determined in a simple manner.
About 1 g of the film-forming agent shown in Table 1 below was metered into a 5 ml glass bottle, and a physiological saline solution with a concentration of 9 g/L of which the weight was the same as that of the film-forming agent was put into the glass bottle, and shaken at room temperature for 20 seconds. The resulting mixture was macroscopically checked as to whether or not it could be a uniform solution.

Setting [5] is: film-forming agent 90% by weight HEMA and 10% by weight BMHPE (Table 2).
Setting [6] is: film-forming agent 65% HEMA, 30% BMHPE, 5% Bis-GMA (Table 3).

For `O=S(=O)(O)O` [sulfuric acid], in data set [1], the “pH of Acid” value stood at 1.1.

“8-methacryloyloxyoctyl phosphate [Example 8MOP]”: the “pH of Acid” value in data set [1] is 2.2.

As to `C=C(C)C(=O)OCCOP(=O)(O)O` [Example 2MEP, 2-methacryloyloxyethyl phosphate], the “pH of Acid” value in data set [1] stood at 1.7. Further, the “Calcium Salt of Acid: Solubility in water” value in data set [2] is listed as “◯”. For the same molecule, in data set [3] (setting [5]), the “Calcium Salt of Acid: Solubility in Film-forming Agent” value (from here on “Calcium Salt … in Film-forming Agent”) is “◯”.

With `O=P(O)(O)O` [phosphoric acid], the “pH of Acid” value in data set [1] is 1.6.

As for `O=C(O)CC(O)(CC(=O)O)C(=O)O` [citric acid], in data set [1], the “pH of Acid” value came out at 1.6.

Regarding `C=C(C)C(=O)OCC(O)CO` (centres unmarked) [GLM, glycerol monomethacrylate], the “Solubility (Uniformity of Reference Solutions)” value in data set [4] is “dissolved”.

With `Cl` [hydrochloric acid], the “pH of Acid” value in data set [1] is 0.9.

Take “12-methacryloyloxydodecyl phosphate [Example 12MLP]”: in data set [1], the “pH of Acid” value was 2.3. In addition, the “Calcium Salt of Acid: Solubility in water” value in data set [2] is listed as “◯”. The “Calcium Salt … in Film-forming Agent” value in data set [3] (setting [6]) and in data set [3] (setting [5]) was “◯” each time.

On to “dimethacrylate of polyethylene glycol 200 [PE-200-OMR]”, for which the “Solubility (Uniformity of Reference Solutions)” value in data set [4] is “not dissolved”.

As to `C=C(C)C(=O)OCCCCCCCCCCOP(=O)(O)O` [Example 10MDP, 10-methacryloyloxydecyl phosphate], in data set [1], the “pH of Acid” value was 2.3. Also, in data set [2] (numerical value), the “solubility in water of calcium salt” value is listed as 0.0003 M/L. For the same molecule, the “Calcium Salt of Acid: Solubility in water” value in data set [2] is recorded as “◯”. In addition, the “Calcium Salt … in Film-forming Agent” value in data set [3] (setting [6]) and in data set [3] (setting [5]) was “◯” each time.

Consider “9-methacryloyloxynonyl phosphate [Example 9MNP]”, for which the “pH of Acid” value in data set [1] was found to be 2.2. For the same molecule, in data set [2], the “Calcium Salt of Acid: Solubility in water” value is recorded as “◯”. For the same molecule, the “Calcium Salt … in Film-forming Agent” value in data set [3] (setting [6]) and in data set [3] (setting [5]) was “◯” each time.

“phenyl-2-methacryloyloxyethyl phosphate [PMEP]”: in data set [1], the “pH of Acid” value turned out to be 1.7.

On to `C=C(C)C(=O)OCCO` [HEMA, hydroxyethyl methacrylate], for which the “Solubility (Uniformity of Reference Solutions)” value in data set [4] is recorded as “dissolved”.

`Cc1ccc(S(=O)(=O)O)cc1` [TSA, p-toluenesulfonic acid, reference compound]: the “pH of Acid” value in data set [1] came out at 1.4. For the same molecule, the “solubility of the calcium salt of the acid in water (in words)” value in data set [2] (description, acid used in place of the polymerizable compound having an acid group) is “too high”. Besides, the “Calcium Salt … in Film-forming Agent” value in data set [3] (setting [5]) was “◯”.

In the case of `C=C(C)C(=O)OCC(O)COCCOCC(O)COC(=O)C(=C)C` (centres unmarked) [BMHPE, 1,2-bis(3-methacryloxy-2-hydroxypropoxy)ethane], in data set [4], the “Solubility (Uniformity of Reference Solutions)” value is “not dissolved”.

On to `O=[N+]([O-])O` [nitric acid], for which the “pH of Acid” value in data set [1] is listed as 0.9.

Consider `C=C(C)C(=O)O` [MRA, methacrylic acid, reference compound], for which the “pH of Acid” value in data set [1] came to 2.9. The “Calcium Salt … in Film-forming Agent” value in data set [3] (setting [5]) is reported as “◯”.

For “monomethacrylate of polyethylene glycol 200 [PE-200-OH]”, the “Solubility (Uniformity of Reference Solutions)” value in data set [4] is “dissolved”.

`C=C(C)C(=O)OCCCO` [HPMA, hydroxypropyl methacrylate]: the “Solubility (Uniformity of Reference Solutions)” value in data set [4] is on record as “not dissolved”.

As for `O=C(O)C(=O)O` [oxalic acid], the “pH of Acid” value in data set [1] is given as 1.3.
